The subject of series [1] is elastase from Pseudomonas aeruginosa. Description: in vitro. Conditions: isolated enzyme elastase, pH 7.4. The procedure:
(§1) In this study we compared the enzymatic degradation rate of LL-37 in an aqueous buffered system to that of a colloidal solution of LL-37 in a galactolipid complex. The experimental procedures for enzymatic degradation were essentially as described using a reverse phase HPLC system (C-18) operating at 210 nm.
(§2) In brief: Two stock solutions A and B were prepared. Solution A, “the reference”, contained 100 μg/ml of LL-37 in PBS, pH 7.4. Solution B, “the complex”, contained in addition to 100 μg/ml LL-37 in PBS, pH 7.4, 0.2% of galactolipids (w/w). Two sets of samples were prepared in Eppendorf tubes, 8 tubes from each stock solution. […] The reactions were kept at 37° C. and samples were withdrawn at predetermined intervals. The reactions were stopped by heating the samples to 100° C. for 5 minutes. After stopping, the reactions were stored at −18° C. prior analysis.
(§3) All samples were analysed in duplicates and the peak area for LL-37 was normalized to that of the negative control, which was set to 1.00. Retention times are given as relative retention time (RRT) to LL-37, which is set to RRT=1.00.

Series [2] addresses elastase from Pseudomonas aeruginosa (Pseudomonas aeruginosa, UniProt P14756). Description: in vitro. The conditions noted are these: for RRT 0.66 degradation fragment, normalized peak area / RRT 0.88 degradation fragment, normalized peak area: elastase:peptide approx. 1:2500, 37° C. The procedure:
as §1, §2, §3

Another series relates to Bacillius megaterium. The series is described as follows: Inhibition zone assay of antimicrobial activity. Conditions: complex with CPL-Galactolipid; LL-25 at 68 ppm. It is filed as cell-based. How it is done: Test of antimicrobial activity of LL-20 and LL-25 complexes The antimicrobial activity was tested using an inhibition zone assay. As a test bacterium, Bacillius megaterium was used.

Series [3] in a line: Ocular inspection of appearance of aqueous peptide/CPL-Galactolipid mixtures. Type of series: physicochemical. Conditions: after 2 h and 2 days of storage at room temperature; 0.20% CPL-Galactolipid; LL-25 68-98 ppm, LL-37 98-213 ppm, LL-38 50-102 ppm, LL-20 52-98 ppm. How it is done: To prepare the solution of the complex the peptide and CPL-Galactolipid are weighed in a 100 ml glass flask and then PBS (10 mM sodium phosphate, 150 mM NaCl, pH 7.4) is added. The sample is vigorously shaken, using a suitable shaker at high speed, for 1-2 h or until the mixture has become clear, and is then allowed to equilibrate and settle for about 30 min at room temperature. Samples of LL-20, LL-25, LL-37 and LL-38 as trifluoroacetate salts and CPL-Galactolipid were prepared using the amounts stated in Table 1 below. The peptide mixtures all contained 0.20% CPL-Galactolipid.
Ocular inspections were made after 2 h and 2 days of storage at room temperature of the mixtures. […] The molecular weight of LL-20 was calculated to be 2.4 kDa.

The conditions of series [4]: when complexed with galactolipids; cited from earlier work.
The conditions of series [5]: at certain weight ratios; cited from earlier work.

Sequence of elastase from Pseudomonas aeruginosa (Pseudomonas aeruginosa, UniProt P14756) (P14756 198-498): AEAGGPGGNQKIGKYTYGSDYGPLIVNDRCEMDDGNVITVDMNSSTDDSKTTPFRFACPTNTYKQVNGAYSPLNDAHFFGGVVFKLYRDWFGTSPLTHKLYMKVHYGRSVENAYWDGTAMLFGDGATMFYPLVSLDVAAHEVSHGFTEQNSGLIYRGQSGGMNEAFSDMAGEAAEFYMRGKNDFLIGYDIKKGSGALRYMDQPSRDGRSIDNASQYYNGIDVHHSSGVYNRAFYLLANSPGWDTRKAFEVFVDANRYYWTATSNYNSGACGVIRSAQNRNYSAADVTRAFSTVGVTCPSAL

In the case of `CC[C@H](C)[C@H](NC(=O)[C@H](CCCCN)NC(=O)[C@H](CCC(=O)O)NC(=O)[C@H](CCCCN)NC(=O)[C@H](CO)NC(=O)[C@H](CCCCN)NC(=O)[C@H](CCCNC(=N)N)NC(=O)[C@H](Cc1ccccc1)NC(=O)[C@H](Cc1ccccc1)NC(=O)[C@H](CC(=O)O)NC(=O)CNC(=O)[C@H](CC(C)C)NC(=O)[C@@H](N)CC(C)C)C(=O)NCC(=O)N[C@@H](CCCCN)C(=O)N[C@@H](CCC(=O)O)C(=O)N[C@@H](Cc1ccccc1)C(=O)N[C@@H](CCCCN)C(=O)N[C@@H](CCCNC(=N)N)C(=O)N[C@H](C(=O)N[C@H](C(=O)N[C@@H](CCC(N)=O)C(=O)N[C@@H](CCCNC(=N)N)C(=O)N[C@H](C(=O)N[C@@H](CCCCN)C(=O)N[C@@H](CC(=O)O)C(=O)N[C@@H](Cc1ccccc1)C(=O)N[C@@H](CC(C)C)C(=O)N[C@@H](CCCNC(=N)N)C(=O)N[C@@H](CC(N)=O)C(=O)N[C@@H](CC(C)C)C(=O)N[C@H](C(=O)N1CCC[C@H]1C(=O)N[C@@H](CCCNC(=N)N)C(=O)N[C@H](C(=O)N[C@@H](CCC(=O)O)C(=O)N[C@@H](CO)C(=O)O)[C@@H](C)O)C(C)C)[C@@H](C)CC)C(C)C)[C@@H](C)CC` [LL-37 in aqueous buffer], in series [1], the fraction remaining at 1 min, 100 μg/ml was 30%. In series [1], the fraction remaining at 5 min, 100 μg/ml amounted to 23%. Also, the “RRT 0.66 degradation fragment, normalized peak area” value in series [2] (1 min) stood at 0.1; in series [2] (5 min), 0.14; in series [2] (15 min), 0.27; in series [2] (30 min) it was 0.54; in series [2] (1 h) it was 0.46; in series [2] (4 h), 0.31. Also, in series [2] (20 h), the “RRT 0.66 degradation fragment, normalized peak area” value was determined as 0.08. In addition, the results for the “RRT 0.88 degradation fragment, normalized peak area” value in series [2] (1 min), in series [2] (5 min) and in series [2] (15 min) were 0.4, 0.36 and 0.04, respectively. Also, the “Degradation when treated with elastase” value in series [2] (elastase from Pseudomonas aeruginosa, 37° C., up to 20 h) was “rapidly degraded”. Further, the “RRT 1.00 (LL-37) peak area normalized to negative control (1.00)” value in series [2] (time 0, 100 μg/ml LL-37, PBS pH 7.4, 37° C.) is given as 1.00.
As for LLGDFFRKSKEKIGKEFKRIVQRIK [LL-25], the Antimicrobial activity entry in the series on Bacillius megaterium is “showed an antimicrobial activity”. In series [3], the “Ocular inspection of the mixtures” value is recorded as “clear or almost clear solutions”.
For “LLGDFFRKSKEKIGKEFKRIVQRIKDFLRNLVPRTES [LL-37]”, the In vitro cytotoxicity result in series [4] is “reduced”. In addition, the “Formation of colloidal solutions with galactolipids” value in series [5] is “formed stable, clear colloidal solutions”. Further, the “Ocular inspection of the mixtures” value in series [3] is “clear or almost clear solutions”.
With “LLGDFFRKSKEKIGKEFKRIVQRIKDFLRNLVPRTESS [LL-38]”, the “Ocular inspection of the mixtures” value in series [3] is listed as “clear or almost clear solutions”.

In general, share remaining refers to the share of the starting amount still present when the sample was taken. Read a low share remaining as a greater loss.

Source of the values: patent US20080058249A1, “Complexes” (Lipopeptide AB, priority 2004, published 2008).
